{"source": "patent US20250114415A1", "about": "“METHOD FOR LOWERING CHOLESTEROL AND LIPID LEVELS USING THE ANTRODIA CINNAMOMEA WATER-INSOLUBLE DIETARY FIBER” (UNIVERSITY OF SHANGHAI FOR SCIENCE AND TECHNOLOGY, priority 2020, published 2025)", "key": {"[1]": {"system": "mice fed with high-fat feed", "assay": "Lipid-lowering function test (animal test): serum lipids (HDL-C, LDL-C) of mice on high-fat feed", "type": "in vivo, C57BL/6 mice", "conditions": "gavage, 8 weeks", "method": "Samples: The water-insoluble dietary fiber component ACA-DK of Antrodia cinnamomea, which is prepared as a suspension of a certain concentration and placed at 4° C. for further use.\nTest animals: 40 C57BL/6 SPF-grade mice weighing 18-22 g were purchased from Shanghai JieSijie Experimental Animal Co., Ltd. (license No. SCXK20180004). They were randomly divided into 4 groups with 10 mice in each group.\nTest method: In test environment, the mice were divided into the following 4 groups: Normal group NG (gavage with normal saline), model group MG (high-fat diet), positive control group PG (gavage with lovastatin) and insoluble dietary fiber group LG. Mice in normal group NG were fed with basic feed, and mice in the rest of the groups were fed with high-fat feed. For mice in insoluble dietary fiber group LG, gavage with the dietary fiber was administered once a day for 8 weeks.\nFeeding conditions: Mice were raised in an IVC system with a temperature of 18-22° C. and a relative humidity of 40-70%. License No. of the laboratory animal using license is SCXK20180004. The irradiated sterile feed for mice was purchased from Jiangsu Synergy Pharmaceutical Bioengineering Co., Ltd.\nBasic feed: Flour 20%, bran 25%, corn 20%, rice flour 10%, soybean meal 20%, fish meal 2%, bone meal 2%, salt 0.9%, vitamin 0.1%;\nHigh-fat feed: Lard 10%, sucrose 5%, cholesterol 1%, bile salt 0.3%, basic feed 83.7%. […]"}, "[2]": {"system": "mice fed with high-fat feed", "assay": "Lipid-lowering function test (animal test): TG and TC of mice on high-fat feed", "type": "in vivo, C57BL/6 mice", "conditions": "gavage, 8 weeks", "description": "SPSS 22.0 Software was used to statistically analyze the original data of each experiment, and the ANOVA program was used to test the significance of the data."}}, "note": "Marks after values point to notes of the source that are not given here.", "data": [{"compound": "CC[C@H](C)C(=O)O[C@H]1C[C@@H](C)C=C2C=C[C@H](C)[C@H](CC[C@@H]3C[C@@H](O)CC(=O)O3)[C@H]21", "note": "[lovastatin]", "values": [{"measurement": "HDL-C", "setting": "[1]", "value": "2.45 ± 0.20 ^D mmol/L"}, {"measurement": "LDL-C", "setting": "[1]", "value": "7.73 ± 3.07 ^b mmol/L"}, {"measurement": "TC", "setting": "[2]", "value": "0.024 ± 0.005 ^a mmol/g prot"}, {"measurement": "TG", "setting": "[2]", "value": "0.031 ± 0.019 ^B mmol/g prot"}]}]}
